± gives the standard deviation of the reports.
With `*/C=C/c1cc(OCCCCCCCCC)c(/C=C/c2ccc(*)cc2)cc1OCCCCCCCCC` (repeat unit) the glass transition temperature was 44.00 °C. `*CC(*)O[N+](=O)[O-]` (repeat unit) gave a glass transition temperature of 37.50 °C. In the case of `*Oc1ccc(NC(=O)CCCCCCC(=O)Nc2ccc(*)cc2)cc1` (repeat unit), the glass transition temperature is reported as 180.00 °C. Molecule `*c1ccc2c(c1)C(=O)N(c1cccc(Oc3cc(Oc4cccc(N5C(=O)c6ccc(C(*)(C(F)(F)F)C(F)(F)F)cc6C5=O)c4)ccc3P(=O)(c3ccccc3)c3ccccc3)c1)C2=O` (repeat unit) has a glass transition temperature of 230.00 °C. For `*CCN(*)C(=O)C(C)C` (repeat unit), the glass transition temperature was 30.00 °C. Work on `*Oc1cc(OCCOC)c(OC(=O)c2ccc(C(*)=O)cc2OCCOCC)cc1OCCOC` (repeat unit) yielded a glass transition temperature of 99.00 °C. Molecule `*O[Si](*)(CCC)CCC` (repeat unit) has a glass transition temperature of -77.50 °C. Molecule `*O[Si](*)(C)CCCCCCCCCCCOc1ccc(/C=C/c2ccc(OCCCC)cc2)cc1` (repeat unit) has a glass transition temperature of -33.00 °C. Molecule `*c1ccc(C2(c3ccc(-c4cc(-c5ccccc5)c5cc(-c6ccc7nc(*)cc(-c8ccccc8)c7c6)ccc5n4)cc3)c3ccccc3C(=O)c3ccccc32)cc1` (repeat unit) has a glass transition temperature of 417.00 °C. Work on `*Oc1cc(C(C)(C)C)c(Oc2ccc(C(=O)Nc3ccc(C(c4ccc(NC(=O)c5ccc(*)cc5)cc4)(C(F)(F)F)C(F)(F)F)cc3)cc2)cc1C(C)(C)C` (repeat unit) yielded a glass transition temperature of 268.00 °C. `*OC1C(COC(C)=O)OC(*)C(OC(C)=O)C1O` (repeat unit) gave a glass transition temperature of 202.00 °C. In the case of `*c1ccc(S(*)(=O)=O)cc1` (repeat unit), the glass transition temperature is reported as 219.50 °C. `*O[Si](*)(C)C1CC2CC1C1C3CC(CC3C(=O)OC(C)(C)C)C21` (repeat unit) gave a glass transition temperature of 90.00 °C. For `*O[Si](C)(C)CCCC(=O)Oc1ccc(/C=N/c2ccc(/N=C/c3ccc(OC(=O)CCC[Si](*)(C)C)cc3)cc2)cc1` (repeat unit), the glass transition temperature was 60.00 °C. `*CCCCCCOC(=O)OCCCCCCOC(=O)OCCCCCCOc1ccc(C(=O)c2ccc(O*)cc2)cc1` (repeat unit) showed a glass transition temperature of -0.30 °C. With `*O[Si](*)(C)CCCCCCCCCCCOc1ccc(-c2ccc(C(=O)Oc3ccc(C(=O)OC(C)C(=O)OC(C)C(=O)OC(C)C(=O)OCC(C)CC)cc3)cc2)cc1` (repeat unit) the glass transition temperature was 15.00 °C. Work on `*CC(OCCCC)C1(C)C(=O)OC(=O)C1(*)C` (repeat unit) yielded a glass transition temperature of 197.00 °C. In the case of `*CC(*)(CC(=O)OCc1ccccc1)C(=O)OCc1ccccc1` (repeat unit), the glass transition temperature is reported as 55.00 °C. Work on `*CC(C(C)C)C(COC(=O)c1ccc(C(=O)O*)cc1)C(C)C` (repeat unit) yielded a glass transition temperature of 65.00 °C. For `*CC(CC)(CC)CS*` (repeat unit), the glass transition temperature was -36.2 °C. With `*=CNc1ccc(CCc2ccc(N=*)cc2)cc1` (repeat unit) the glass transition temperature was 125.00 °C. Work on `*CC(*)CCC` (repeat unit) [Poly(propylethylene)] yielded a glass transition temperature of -35 ± 46 °C. With `*Nc1ccc(NC(=O)c2ccc(NC(=O)c3ccc([Si](C)(C)c4ccc(C(=O)Nc5ccc(C(*)=O)cc5)cc4)cc3)cc2)cc1` (repeat unit) the glass transition temperature was 338.00 °C. Work on `*OCCOC(=O)CCCC(=O)OCCOc1nc(-c2ccc(OCCCC)cc2)nc(*)c1-c1ccc(OC)cc1` (repeat unit) yielded a glass transition temperature of 46.00 °C. In the case of `*c1ccc(NC2CC(=O)N(c3ccc(-c4sc(-c5ccc(N6C(=O)CC(Nc7ccc(-c8nc(-c9ccc(-c%10nc(-c%11ccc([N+](=O)[O-])cc%11)c(-c%11ccc([N+](=O)[O-])cc%11)[nH]%10)cc9)[nH]c8*)cc7)C6=O)cc5)c(-c5ccccc5)c4-c4ccccc4)cc3)C2=O)cc1` (repeat unit), the glass transition temperature is reported as 152.00 °C. `*c1ccc(Oc2ccc(C(=O)c3cccc(C(=O)c4ccc(Oc5ccc(-n6c(=O)c7cc8c(=O)n(*)c(=O)c8cc7c6=O)cc5)cc4)c3)cc2)cc1` (repeat unit) gave a glass transition temperature of 247.00 °C. Molecule `*CCCCCCCCCCCCCCCCOC(=O)NCCCCCCNC(=O)O*` (repeat unit) has a glass transition temperature of 39.00 °C. `*CC(*)C(=O)Oc1ccc(C(=O)Oc2ccc(OC(=O)c3ccc(OCCCCC)cc3)cc2)cc1` (repeat unit) gave a glass transition temperature of 48.00 °C. `*CC(*)C(=O)OCCOc1ccc(C(=O)Oc2ccc(OC)cc2)cc1` (repeat unit) gave a glass transition temperature of 70.00 °C. `*CC(*)C(=O)OCc1ccccc1` (repeat unit) gave a glass transition temperature of 9.2 °C. With `*CC(=O)Nc1ccc(Oc2cccc(Oc3ccc(NC(=O)c4ccc5c(c4)C(=O)N(*)C5=O)cc3)c2)cc1` (repeat unit) the glass transition temperature was 220.00 °C. `*c1ccc(Cc2ccc(N3C(=O)c4ccc(Oc5ccc(C6(c7ccc(Oc8ccc9c(c8)C(=O)N(*)C9=O)cc7)CCC(c7ccccc7)CC6)cc5)cc4C3=O)cc2)cc1` (repeat unit) showed a glass transition temperature of 232.00 °C. Molecule `*C(=O)OCC(C)(C)CSCC(C)(C)COC(=O)C1(C)CNC(*)(C)CN1` (repeat unit) has a glass transition temperature of 40.00 °C. For `*CC(*)(F)C(=O)OCC(Cl)(Cl)Cl` (repeat unit), the glass transition temperature was 127.00 °C. `*CCOCCOCCOC(=O)/C=C/C(=O)NCCCCCCNC(=O)/C=C/C(=O)O*` (repeat unit) showed a glass transition temperature of 65.00 °C. Molecule `*Oc1c(F)c(F)c(Sc2c(F)c(F)c(Oc3ccc(C(c4ccc(*)cc4)(C(F)(F)F)C(F)(F)F)cc3)c(F)c2F)c(F)c1F` (repeat unit) has a glass transition temperature of 141.50 °C. `*CCCCOCC(O)CN(CC(O)CO*)c1ccc(N(C)C)cc1` (repeat unit) gave a glass transition temperature of 31.00 °C. `*CCCCOC(=O)c1ccc(C(=O)O*)cc1` (repeat unit) [Poly(butylene terephthalate)] gave a glass transition temperature of 44.12 ± 6 °C. For `*CCCC1(CCCNC(=O)CCC2(CCC(=O)N*)c3ccccc3-c3ccccc32)c2ccccc2-c2ccccc21` (repeat unit), the glass transition temperature was 165.00 °C. With `*CCOCCOCCOCCOc1ccc(C(=O)Nc2cc(NC(=O)c3ccc(O*)cc3)cc(-c3nc4ccccc4[nH]3)c2)cc1` (repeat unit) the glass transition temperature was 163.00 °C. `*Oc1ccc(CC(NC(=O)CCc2ccc(OC(=O)COCC(*)=O)cc2)C(=O)OCCCCCCCCCCCC)cc1` (repeat unit) showed a glass transition temperature of 36.00 °C. With `*c1ccc2c(c1)C(=O)N(c1ccc(NC(=O)C(F)(F)C(F)(F)C(F)(F)C(F)(F)C(=O)Nc3ccc(N4C(=O)c5ccc(C(*)(C(F)(F)F)C(F)(F)F)cc5C4=O)cc3)cc1)C2=O` (repeat unit) the glass transition temperature was 285.00 °C. `*Oc1ccc(NC(=O)c2ccc(Oc3ccc(C(C)(C)c4ccc(C(C)(C)c5ccc(Oc6ccc(C(=O)Nc7ccc(Oc8ccc(C(c9ccc(*)cc9)(C(F)(F)F)C(F)(F)F)cc8)cc7)cc6)cc5)cc4)cc3)cc2)cc1` (repeat unit) showed a glass transition temperature of 169.00 °C. In the case of `*c1ccc(C(=O)OCCCCCCCCOc2ccc(/C=C3\CCCC/C(=C\c4ccc(OCCCCCCCCOC(=O)c5ccc(-c6nnc(*)o6)cc5)cc4)C3=O)cc2)cc1` (repeat unit), the glass transition temperature is reported as 98.00 °C. Work on `*CCCOC(=O)OCCCCCCOC(=O)OCCCn1c(=O)c2cc3c(=O)n(*)c(=O)c3cc2c1=O` (repeat unit) yielded a glass transition temperature of 36.00 °C. In the case of `*Oc1c(C)cc(C(C)(C)c2cc(C)c(OC(*)=O)c(Cl)c2)cc1Cl` (repeat unit), the glass transition temperature is reported as 154.00 °C. For `*CC(*)(C)C(=O)OC1CC2CC1C1C3CCC(C3)C21` (repeat unit), the glass transition temperature was 199.00 °C. With `*CC(*)(C)C(=O)Nc1ccc(C(=O)/C=C/c2ccc(OC)cc2)cc1` (repeat unit) the glass transition temperature was 35.00 °C. Work on `*CCCCCCn1c2ccccc2c2cc(/C=C(\C#N)C(=O)OCCCCCCOC(=O)/C(C#N)=C/c3ccc4c(c3)c3ccccc3n4*)ccc21` (repeat unit) yielded a glass transition temperature of 117.70 °C. Work on `*Oc1ccc(C(=O)c2ccc(Oc3ccc(C(=O)c4ccc(Oc5cccc(Cc6cccc(*)c6)c5)cc4)cc3)cc2)cc1` (repeat unit) yielded a glass transition temperature of 123.00 °C. `*c1ccc2c(c1)C(=O)N(c1ccc(Oc3ccc(N4C(=O)c5ccc(-c6c(-c7ccccc7)c(-c7ccccc7)c(-c7ccc(Sc8ccc(-c9c(-c%10ccccc%10)c(-c%10ccccc%10)c(*)c(-c%10ccccc%10)c9-c9ccccc9)cc8)cc7)c(-c7ccccc7)c6-c6ccccc6)cc5C4=O)cc3)cc1)C2=O` (repeat unit) showed a glass transition temperature of 322.00 °C. `*c1ccc(Cc2ccc(N3C(=O)c4c(c(-c5ccccc5)c(-c5ccc(Oc6ccc(-c7c(-c8ccccc8)c8c(c(-c9ccccc9)c7-c7ccccc7)C(=O)N(*)C8=O)cc6)cc5)c(-c5ccccc5)c4-c4ccccc4)C3=O)cc2)cc1` (repeat unit) gave a glass transition temperature of 356.00 °C. Molecule `*Cc1ccc(C(C)(C)c2ccc(CN3C(=O)c4ccc(-c5ccc6c(c5)C(=O)N(*)C6=O)cc4C3=O)o2)o1` (repeat unit) has a glass transition temperature of 129.00 °C. `*CCC(C)CC(C)(C)CNC(=O)c1ccc(C(=O)N*)cc1` (repeat unit) gave a glass transition temperature of 147.00 °C. Work on `*Oc1ccc(C(C)(CCC#N)c2ccc(OC(*)=O)c(C)c2)cc1C` (repeat unit) yielded a glass transition temperature of 117.00 °C. In the case of `*CC(*)(F)C(=O)OC(C(F)(F)F)C(F)(F)F` (repeat unit), the glass transition temperature is reported as 102.00 °C. `*NC(CCC(=O)OCCCCCCCCCC)C(*)=O` (repeat unit) gave a glass transition temperature of -62.00 °C. `*/C=C/c1sc(-c2ccc(-c3sc(/C=C/C4=CC(=C(C#N)C#N)C=C(*)O4)c(CCCCCC)c3CCCCCC)s2)c(CCCCCC)c1CCCCCC` (repeat unit) showed a glass transition temperature of 114.00 °C. Work on `*CC(CO*)(CS(=O)(=O)CCCC)CS(=O)(=O)CCCC` (repeat unit) yielded a glass transition temperature of 66.00 °C. Molecule `*c1ccc(Oc2ccc(C(=O)c3ccc(-c4ccc(C(=O)c5ccc(Oc6ccc(-c7nc(-c8cccc(-c9nc(*)c(-c%10ccccc%10)[nH]9)c8)[nH]c7-c7ccccc7)cc6)cc5)cc4)cc3)cc2)cc1` (repeat unit) has a glass transition temperature of 276.00 °C. Molecule `*c1cccc(P(=O)(c2ccccc2)c2cccc(N3C(=O)c4ccc(Oc5ccc(C(C)(C)c6ccc(Oc7ccc8c(c7)C(=O)N(*)C8=O)cc6)cc5)cc4C3=O)c2)c1` (repeat unit) has a glass transition temperature of 213.00 °C. For `*CC(=O)Nc1ccc(Oc2ccc(NC(=O)CN3C(=O)c4ccc(C(=O)c5ccc6c(c5)C(=O)N(*)C6=O)cc4C3=O)cc2)cc1` (repeat unit), the glass transition temperature was 235.00 °C. Work on `*c1ccc(-c2nnc(-c3cccc(-c4nnc(*)o4)c3)o2)cc1` (repeat unit) yielded a glass transition temperature of 278.00 °C.
